In patent US20230142274A1 (SIMCERE PHARMACEUTICAL CO., LTD., priority 2020, published 2023):
Like-named read-outs stand apart in the source and are kept apart here.

Tests used:
[1] = tested on: CD-1 mouse plasma; test: Plasma protein binding rate assay (equilibrium dialysis); type: in vitro ADME; conditions: compound 1 μM, equilibrium dialysis 6 hours at 37° C.
Method: 1. CD-1 mouse plasma (BioIVT)
1. Formulation of a buffer solution containing 100 mM sodium phosphate and 150 mM NaCl: An alkaline solution containing Na2HPO4 (14.2 g/L) and NaCl (8.77 g/L) was formulated with ultrapure water. An acidic solution containing NaH2PO4 (12.0 g/L) and NaCl (8.77 g/L) was formulated with ultrapure water. The alkaline solution was titrated with the acidic solution until the pH value was 7.4, thus formulating the buffer solution containing 100 mM sodium phosphate and 150 mM NaCl.
2. Preparation of dialysis membrane: The dialysis membrane was immersed in ultrapure water for 60 minutes to separate the membrane into two pieces, then immersed in 20% ethanol for 20 minutes, and finally immersed in a buffer for dialysis for 20 minutes.
3. Preparation of plasma: Frozen plasma was thawed rapidly at room temperature. Thereafter, the plasma was centrifuged at 3220 g for 10 minutes at 4° C. to remove clots, and the supernatant was collected into a new centrifuge tube. The pH values of plasma were measured and recorded. The plasma with a pH value of 7 to 8 was used.
4. Formulation of compound-containing plasma samples: A 10 mM stock solution of the compound of the present disclosure or the positive control compound was diluted with DMSO to obtain a 200 μM working solution. 3 μl of the 200 μM working solution of the compound was added into 597 μl of mouse plasma to obtain a plasma sample with a final concentration of 1 μM.
5. Steps of equilibrium dialysis: The dialysis device was assembled according to the operating instructions. 120 μL of a plasma sample containing 1 μM compound was added on one side of the dialysis membrane, and an equal volume of dialysate (phosphate buffer solution) was added on the other side. Duplicate samples were set in the experiment. The dialysis plate was sealed and placed in an incubation device where the samples were incubated at 37° C. in an atmosphere containing 5% CO2 for 6 hours with a rotational speed of about 100 rpm. After the incubation was complete, the sealing membrane was removed. 50 μl of samples were respectively aspirated from the buffer solution side and the plasma side of each well and transferred into different wells of a new plate. 50 μl of blank plasma was added into the sample obtained from the phosphate buffer solution side, and an equal volume of blank phosphate buffer solution was added into the plasma sample, followed by the addition of 300 μl of acetonitrile containing the internal standard to precipitate protein. The sample was vortexed for 5 minutes and centrifuged at 3220 g for 30 minutes at 4° C. 100 μl of the supernatant was aspirated and transferred to the sample plate, mixed well with 100 μL of ultrapure water, and used for LC-MS/MS analysis.
The peak areas of the compounds on the buffer solution side and the plasma side were determined. The formula for calculating the plasma protein binding rate of the compound was as follows:
% Free rate=(the ratio of the peak area of the compound to the peak area of the internal standard on the buffer solution side/the ratio of the peak area of the compound to the peak area of the internal standard on the plasma side)×100
% Binding rate=100−% free rate

[2] = Pharmacokinetic experiment in mouse; type: in vivo; conditions: female CB17-SCID mice; for half-life: mouse, plasma, read-out: Drug Elimination Half-life (converted)
Source text: CB17-SCID mice were purchased from Beijing Vital River Laboratory Animal Technology Co., Ltd.
DMSO, HP-β-CD (hydroxypropyl-β-cyclodextrin), PEG400 (polyethylene glycol 400), and Vitamin E TPGS (D-α-tocopherol polyethylene glycol 1000 succinate) were purchased from Sigma.
Six female CB17-SCID mice (20 g to 30 g, aged 4 to 6 weeks) were divided randomly into two groups, with 3 mice in each group. In Group 1, the compound in a vehicle of an aqueous solution containing 5% dimethyl sulfoxide and 95% hydroxypropyl-β-cyclodextrin (10%, w/v) was administered by intravenous injection via tail vein. In Group 2, a corresponding dose of the compound in a vehicle of an aqueous solution containing 30% polyethylene glycol 400 and 70% D-α-tocopherol polyethylene glycol 1000 succinate (10%, w/v) was orally administered. The animals were fed normally with food and water before experiment. The mice in each group underwent intravenous blood collection before administration and at 0.083 h (intravenous injection group only), 0.25 h, 0.5 h, 1 h, 2 h, 4 h, 6 h, 8 h, and 24 h after administration. The collected whole blood samples were placed in K2EDTA anticoagulation tubes and centrifuged for 5 min (4000 rpm, 4° C.) to collect the plasma for testing.
10 μL of the mouse plasma sample was taken, and 150 μL of acetonitrile solvent (containing the internal standard compound) was added to precipitate protein. After the resultant was vortexed for 0.5 min and centrifuged (4700 rpm, 4° C.) for 15 min, the supernatant was subjected to 2-fold dilution with water containing 0.05% (v/v) FA and was then subjected to quantitative measurement in LC-MS/MS system (AB Sciex Triple Quad 6500+). A calibration standard curve was prepared in CB17-SCID mouse plasma along with quality control samples to determine the plasma concentration. As for a 10× diluted sample, 2 μL of sample was taken and 18 μL of blank plasma was added. After being vortexed for 0.5 min, the mixture was added with 300 μL of acetonitrile solvent (containing the internal standard compound) so as to precipitate protein. The rest of the processing steps were the same as those for the undiluted samples.

Structure (SMILES) | % Binding Rate [1] | Drug Exposure ([2]; oral dose 25 mg/kg) [µg·h/mL] | Max. Drug Conc. ([2]; oral dose 25 mg/kg) [ng/mL] | Peak Time of Drug Conc. ([2]; oral dose 25 mg/kg) [h] | half-life ([2]; oral dose 25 mg/kg) [h] | Drug Exposure ([2]; oral dose 30 mg/kg) [µg·h/mL] | Max. Drug Conc. ([2]; oral dose 30 mg/kg) [ng/mL] | Peak Time of Drug Conc. ([2]; oral dose 30 mg/kg) [h] | half-life ([2]; oral dose 30 mg/kg) [h]
CC(C)OC(=O)NC1CCC(c2ncc(-c3ccc(Nc4ccc(F)cn4)cc3S(=N)(=O)C3CC3)s2)CC1 (stereo not drawn) [Example 81, isopropyl trans-N-[4-[5-[2-(cyclopropylsulfonimidoyl)]-4-[(5-fluoro-2-pyridyl)amino]phenyl]thiazol-2-yl]cyclohexyl]carbamate] | 99.7%^ | 223.309 | 13563 | 5 | 10 |  |  |  | 
Cc1cc(Nc2ccc(-c3cnc([C@H]4CC[C@H](NC(=O)OC(C)C)CC4)s3)c(S(=O)(=O)C3CC3)c2)n[nH]1 [Example 48, isopropyl trans-(4-(5-(2-(cyclopropylsulfonyl)-4-((5-methyl-1H-pyrazol-3-yl)amino)phenyl)thiazol-2-yl)cyclohexyl)carbamate] | 99% |  |  |  |  | 203.497 | 17657 | 2 | 7.6
